# Data as given in ChEMBL document CHEMBL1201862, “PubChem BioAssay data set” (2004).
# Active and inactive are the calls of the source.
# Key:
# [1] = molecular target: DNA damage-inducible transcript 3 protein (Mus musculus, UniProt P35639); type: functional, Cricetulus griseus
# [2] = Luminescence Cell-Based Dose Retest to Confirm Inhibitors of Cancer Stem Cells. [Related pubchem assays (depositor defined):AID2717, AID2721]; type: functional; conditions: Homo sapiens
# Hexokinase HKDC1 = molecular target: T1, Hexokinase HKDC1 (Homo sapiens, UniProt Q2TB90); assay: activation of HKDC1 glucose phosphorylation – biochemical, W721R variant, dose response (AID 504730); type: functional
# T1 sequence (Q2TB90 whole entry): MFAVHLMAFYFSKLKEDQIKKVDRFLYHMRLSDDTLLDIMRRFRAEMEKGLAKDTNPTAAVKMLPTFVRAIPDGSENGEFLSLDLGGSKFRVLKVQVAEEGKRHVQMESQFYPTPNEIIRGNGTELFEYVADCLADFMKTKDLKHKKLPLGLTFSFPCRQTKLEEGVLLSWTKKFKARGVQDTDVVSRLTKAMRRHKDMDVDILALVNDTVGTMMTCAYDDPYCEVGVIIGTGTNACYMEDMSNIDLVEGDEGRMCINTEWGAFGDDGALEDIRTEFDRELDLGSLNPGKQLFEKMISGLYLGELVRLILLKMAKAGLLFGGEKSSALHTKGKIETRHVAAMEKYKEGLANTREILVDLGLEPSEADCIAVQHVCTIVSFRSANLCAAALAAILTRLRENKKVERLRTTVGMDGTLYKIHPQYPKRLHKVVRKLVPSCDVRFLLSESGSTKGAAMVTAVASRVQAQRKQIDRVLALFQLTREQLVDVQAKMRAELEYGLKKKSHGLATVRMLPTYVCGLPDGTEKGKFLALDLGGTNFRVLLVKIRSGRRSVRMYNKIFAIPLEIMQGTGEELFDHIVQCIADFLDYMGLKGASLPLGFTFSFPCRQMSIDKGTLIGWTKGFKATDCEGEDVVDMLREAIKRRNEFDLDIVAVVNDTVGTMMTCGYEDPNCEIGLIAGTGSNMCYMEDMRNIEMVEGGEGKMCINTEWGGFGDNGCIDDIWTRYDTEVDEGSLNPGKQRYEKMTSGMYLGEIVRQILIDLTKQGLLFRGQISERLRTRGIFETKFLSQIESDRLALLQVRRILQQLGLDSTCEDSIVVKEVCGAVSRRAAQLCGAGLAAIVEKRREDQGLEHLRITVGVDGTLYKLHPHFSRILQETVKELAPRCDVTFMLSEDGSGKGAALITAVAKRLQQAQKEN
# Hexokinase-1 = Hexokinase-1 (Homo sapiens, UniProt P19367); assay: HK1 enzyme activation by HKDC1 hits – biochemical, selectivity assay for HKDC1 activator project, dose response (AID 504762); type: functional
# [3] = molecular target: G-protein coupled receptor 55 (Homo sapiens, UniProt Q9Y2T6); assay: SAR Analysis of Selective Antagonists of GPR55 using an Image-Based Assay - Set 4. [Related pubchem assays (depositor defined):AID2013, AID2026]; type: functional;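 note: antagonism of response to 5 µM lysophosphatidylinositol agonist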
# Cannabinoid receptor 1 [4] = molecular target: T2, Cannabinoid receptor 1 (Homo sapiens, UniProt P21554); assay: SAR analysis of agonists of the Cannabinoid Receptor 1 using an Image-Based Assay - Set 4. [Related pubchem assays (depositor defined):AID2013, AID2026]; type: functional
# [5] = molecular target: T3, G-protein coupled receptor 35 (Homo sapiens, UniProt Q9HC97); assay: SAR analysis of Antagonists of the GPR35 Receptor using an Image-Based Assay - Set 6. [Related pubchem assays (depositor defined):AID2013, AID2026]; type: functional
# [6] = molecular target: T3, G-protein coupled receptor 35; assay: SAR analysis of Agonists of the GPR35 Receptor using an Image-Based Assay - Set 4. [Related pubchem assays (depositor defined):AID2013, AID2026]; type: functional
# Cannabinoid receptor 2 [7] = molecular target: T4, Cannabinoid receptor 2 (Homo sapiens, UniProt P34972); assay: SAR analysis of agonists of the Cannabinoid Receptor 2 using an Image-Based Assay - Set 3. [Related pubchem assays (depositor defined):AID2013, AID2026]; type: functional
# Cannabinoid receptor 2 [8] = molecular target: T4, Cannabinoid receptor 2; assay: SAR analysis of antagonists of the Cannabinoid Receptor 2 using an Image-Based Assay - Set 3. [Related pubchem assays (depositor defined):AID2013, AID2026]; type: functional
# Cannabinoid receptor 1 [9] = molecular target: T2, Cannabinoid receptor 1; assay: SAR analysis of antagonists of the Cannabinoid Receptor 1 using an Image-Based Assay - Set 4. [Related pubchem assays (depositor defined):AID2013, AID2026]; type: functional
# CAAX prenyl protease 2 = CAAX prenyl protease 2 (Saccharomyces cerevisiae S288c, UniProt Q03530); type: biochemical
# Trypsin = Trypsin (Sus scrofa, UniProt P00761); assay: trypsin protease activity blockade – biochemical, quenched peptide fluorescence, cherry-pick, selectivity assay for Rce1 protease inhibitor project, dose response (AID 488789)
# Coagulation factor XII = molecular target: T5, Coagulation factor XII (Homo sapiens, UniProt P00748); assay: activated coagulation factor XII inhibitor potency, concentration-effect curve, cell-free (AID 716); type: functional
# T5 sequence (P00748 whole entry): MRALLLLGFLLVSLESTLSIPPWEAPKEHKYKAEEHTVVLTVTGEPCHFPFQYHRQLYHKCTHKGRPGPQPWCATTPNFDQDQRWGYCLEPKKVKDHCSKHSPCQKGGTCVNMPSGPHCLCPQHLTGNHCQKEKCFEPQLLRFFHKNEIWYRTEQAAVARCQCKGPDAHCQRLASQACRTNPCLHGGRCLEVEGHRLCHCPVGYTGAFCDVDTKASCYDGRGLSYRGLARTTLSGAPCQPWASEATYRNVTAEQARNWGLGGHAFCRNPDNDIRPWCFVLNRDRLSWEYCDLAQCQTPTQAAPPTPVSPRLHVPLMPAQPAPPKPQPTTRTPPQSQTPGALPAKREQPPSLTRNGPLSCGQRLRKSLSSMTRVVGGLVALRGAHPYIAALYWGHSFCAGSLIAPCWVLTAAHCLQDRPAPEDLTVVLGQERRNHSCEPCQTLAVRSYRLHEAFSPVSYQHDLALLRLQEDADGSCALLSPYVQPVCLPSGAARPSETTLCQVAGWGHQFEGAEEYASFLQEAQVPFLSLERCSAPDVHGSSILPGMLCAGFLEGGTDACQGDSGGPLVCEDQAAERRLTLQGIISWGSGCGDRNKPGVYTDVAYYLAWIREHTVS
# Hexokinase = Hexokinase (Trypanosoma brucei, UniProt Q38C41); assay: Confirmation assay for inhibitors of Trypanosoma brucei hexokinase 1-Analogue-first series. [Related pubchem assays (depositor defined):AID1430, AID1632, AID2516, AID2560, AID2579, AID2600, AID449725, AID492951]; type: functional
# T-cell = assay: loss of vesicle association with mouse CD8+ T cells – mouse 2C CD8+ T cells, flow cytometry, dose response (AID 485284); type: functional
# [10] = molecular target: DNA dC->dU-editing enzyme APOBEC-3G (Homo sapiens, UniProt Q9HC16); type: functional;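 note: Dose-response counterscreen measuring inhibition of APOBEC3G DNA deaminase activity, run while confirming APOBEC3A inhibitors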
# [11] = molecular target: DNA dC->dU-editing enzyme APOBEC-3A (Homo sapiens, UniProt P31941); assay: Dose Response confirmation of small molecule APOBEC3A DNA Deaminase Inhibitors via a fluorescence-based single-stranded DNA deaminase assay. [Related pubchem assays (depositor defined):AID493011, AID493024]; type: functional
# [12] = molecular target: T6, Dual specificity protein phosphatase 6 (Rattus norvegicus, UniProt Q64346); type: functional;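 note: confirmatory in vitro dose-response testing of MKP-3 inhibition; recombinant His-tagged MKP-3 made in E. coli BL21 with OMFP substrate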
# T6 sequence (Q64346 whole entry): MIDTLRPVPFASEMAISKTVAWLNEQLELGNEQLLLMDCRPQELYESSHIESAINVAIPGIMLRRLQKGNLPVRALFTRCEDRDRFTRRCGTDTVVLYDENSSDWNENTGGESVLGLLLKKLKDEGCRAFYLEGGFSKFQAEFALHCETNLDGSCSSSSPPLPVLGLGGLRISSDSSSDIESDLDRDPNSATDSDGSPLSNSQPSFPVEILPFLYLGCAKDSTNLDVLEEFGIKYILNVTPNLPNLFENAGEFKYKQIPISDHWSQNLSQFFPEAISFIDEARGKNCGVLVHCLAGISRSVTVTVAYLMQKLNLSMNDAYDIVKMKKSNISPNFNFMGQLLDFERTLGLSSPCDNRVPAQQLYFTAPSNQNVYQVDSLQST
# [13] = molecular target: Dual specificity protein phosphatase 3 (Homo sapiens, UniProt P51452); assay: SAR VHR1 Fluorescent Assay for In Vitro dose response studies Set 2. [Related pubchem assays (depositor defined):AID1654, AID1661, AID1878]; type: functional
# [14] = molecular target: T7, Tyrosine-protein phosphatase non-receptor type 22 (Homo sapiens, UniProt Q9Y2R2); assay: inhibition of lymphoid tyrosine phosphatase LYP – biochemical, pCAP fluorogenic substrate, fluorescence, set 3, SAR follow-up (AID 449727); type: functional
# T7 sequence (Q9Y2R2 whole entry): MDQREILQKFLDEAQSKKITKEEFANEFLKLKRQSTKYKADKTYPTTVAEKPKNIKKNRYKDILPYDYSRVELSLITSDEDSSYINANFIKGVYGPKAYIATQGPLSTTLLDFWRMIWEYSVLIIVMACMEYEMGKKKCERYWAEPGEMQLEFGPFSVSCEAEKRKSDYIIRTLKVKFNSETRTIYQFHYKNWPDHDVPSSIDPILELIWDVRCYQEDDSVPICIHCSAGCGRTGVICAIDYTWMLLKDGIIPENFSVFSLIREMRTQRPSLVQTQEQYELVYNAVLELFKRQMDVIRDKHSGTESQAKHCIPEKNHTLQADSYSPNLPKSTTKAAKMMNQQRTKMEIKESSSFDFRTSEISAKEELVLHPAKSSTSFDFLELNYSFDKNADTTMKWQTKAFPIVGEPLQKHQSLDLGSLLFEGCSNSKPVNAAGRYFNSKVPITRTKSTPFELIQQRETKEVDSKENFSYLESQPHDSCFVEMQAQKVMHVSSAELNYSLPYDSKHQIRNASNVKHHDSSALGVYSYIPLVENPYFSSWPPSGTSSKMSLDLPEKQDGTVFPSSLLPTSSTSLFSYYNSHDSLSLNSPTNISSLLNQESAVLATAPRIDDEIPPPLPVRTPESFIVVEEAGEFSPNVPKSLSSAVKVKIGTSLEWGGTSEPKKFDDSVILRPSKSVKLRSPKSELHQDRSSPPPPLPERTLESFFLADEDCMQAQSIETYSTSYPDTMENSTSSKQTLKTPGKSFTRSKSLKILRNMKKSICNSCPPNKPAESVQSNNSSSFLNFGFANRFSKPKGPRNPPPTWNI
# [15] = molecular target: T8, Tyrosine-protein phosphatase non-receptor type 7 (Homo sapiens, UniProt P35236); assay: inhibition of hematopoietic tyrosine phosphatase HePTP – biochemical, set 2, SAR follow-up (AID 449736); type: functional
# T8 sequence (P35236 whole entry): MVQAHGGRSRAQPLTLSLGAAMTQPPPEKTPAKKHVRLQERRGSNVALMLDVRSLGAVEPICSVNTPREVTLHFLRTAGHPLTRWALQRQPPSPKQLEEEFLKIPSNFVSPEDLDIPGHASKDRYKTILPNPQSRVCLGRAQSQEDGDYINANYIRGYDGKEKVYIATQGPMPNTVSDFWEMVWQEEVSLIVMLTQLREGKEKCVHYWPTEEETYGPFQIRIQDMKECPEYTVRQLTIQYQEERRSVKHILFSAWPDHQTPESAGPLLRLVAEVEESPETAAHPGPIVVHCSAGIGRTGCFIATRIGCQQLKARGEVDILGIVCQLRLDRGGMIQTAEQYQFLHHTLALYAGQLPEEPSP
# [16] = molecular target: T7, Tyrosine-protein phosphatase non-receptor type 22; assay: SAR LYP1 Fluorescent Assay using OMFP substrate for In Vitro dose response studies - Set 3. [Related pubchem assays (depositor defined):AID1779, AID1784, AID2140, AID2686]; type: functional
# [17] = molecular target: T8, Tyrosine-protein phosphatase non-receptor type 7; assay: redox-active compounds inhibiting HePTP phosphatase – biochemical, fluorescence, mechanism study (AID 2068); type: functional
# [18] = molecular target: Tyrosine-protein phosphatase non-receptor type 12 (Homo sapiens, UniProt Q05209); assay: SAR Selectivity Analysis of small molecule inhibitors of PEST using pCAP in a fluorescence assay. [Related pubchem assays (depositor defined):AID1779, AID1784, AID2135]; type: functional
# Sequence of Tyrosine-protein phosphatase non-receptor type 12 (Q05209 whole entry): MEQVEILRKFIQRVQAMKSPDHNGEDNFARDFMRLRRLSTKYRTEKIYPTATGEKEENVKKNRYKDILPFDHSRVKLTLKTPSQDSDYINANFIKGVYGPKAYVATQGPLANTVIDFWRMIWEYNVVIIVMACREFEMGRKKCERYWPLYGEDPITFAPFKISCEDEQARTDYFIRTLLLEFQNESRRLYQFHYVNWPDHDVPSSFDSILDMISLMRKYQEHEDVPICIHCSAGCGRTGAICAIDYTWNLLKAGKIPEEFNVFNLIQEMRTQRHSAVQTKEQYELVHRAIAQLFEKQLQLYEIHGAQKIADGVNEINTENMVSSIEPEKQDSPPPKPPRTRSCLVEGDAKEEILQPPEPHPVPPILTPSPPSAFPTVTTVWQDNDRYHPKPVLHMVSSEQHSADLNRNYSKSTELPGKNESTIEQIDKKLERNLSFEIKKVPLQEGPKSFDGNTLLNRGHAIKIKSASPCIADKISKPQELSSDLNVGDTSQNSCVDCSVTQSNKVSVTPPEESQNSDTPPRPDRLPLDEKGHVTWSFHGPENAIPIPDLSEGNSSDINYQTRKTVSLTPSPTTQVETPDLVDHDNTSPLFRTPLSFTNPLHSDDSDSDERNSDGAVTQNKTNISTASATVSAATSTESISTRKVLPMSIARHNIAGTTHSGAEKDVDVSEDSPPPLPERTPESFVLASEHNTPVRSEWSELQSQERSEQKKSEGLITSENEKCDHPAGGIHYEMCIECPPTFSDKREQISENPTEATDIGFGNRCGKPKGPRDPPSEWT
# T3 sequence (Q9HC97 whole entry): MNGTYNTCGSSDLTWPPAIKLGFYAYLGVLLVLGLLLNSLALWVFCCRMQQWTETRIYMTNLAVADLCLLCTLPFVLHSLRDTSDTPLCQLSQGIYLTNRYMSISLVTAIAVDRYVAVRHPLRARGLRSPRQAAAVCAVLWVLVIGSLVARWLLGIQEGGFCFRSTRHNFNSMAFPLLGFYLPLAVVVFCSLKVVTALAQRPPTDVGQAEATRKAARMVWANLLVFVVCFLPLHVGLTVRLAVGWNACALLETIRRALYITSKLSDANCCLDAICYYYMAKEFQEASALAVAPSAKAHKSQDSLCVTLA
# T4 sequence (P34972 whole entry): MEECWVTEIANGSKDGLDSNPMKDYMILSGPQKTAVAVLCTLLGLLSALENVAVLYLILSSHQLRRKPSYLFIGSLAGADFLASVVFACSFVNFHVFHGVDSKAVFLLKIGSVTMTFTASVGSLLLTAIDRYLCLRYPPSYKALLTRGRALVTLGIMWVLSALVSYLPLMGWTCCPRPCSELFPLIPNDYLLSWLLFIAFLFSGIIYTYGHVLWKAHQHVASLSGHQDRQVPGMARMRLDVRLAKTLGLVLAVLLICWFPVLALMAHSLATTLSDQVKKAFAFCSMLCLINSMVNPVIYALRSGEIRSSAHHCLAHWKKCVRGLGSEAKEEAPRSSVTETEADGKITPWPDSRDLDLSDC
# T2 sequence (P21554 whole entry): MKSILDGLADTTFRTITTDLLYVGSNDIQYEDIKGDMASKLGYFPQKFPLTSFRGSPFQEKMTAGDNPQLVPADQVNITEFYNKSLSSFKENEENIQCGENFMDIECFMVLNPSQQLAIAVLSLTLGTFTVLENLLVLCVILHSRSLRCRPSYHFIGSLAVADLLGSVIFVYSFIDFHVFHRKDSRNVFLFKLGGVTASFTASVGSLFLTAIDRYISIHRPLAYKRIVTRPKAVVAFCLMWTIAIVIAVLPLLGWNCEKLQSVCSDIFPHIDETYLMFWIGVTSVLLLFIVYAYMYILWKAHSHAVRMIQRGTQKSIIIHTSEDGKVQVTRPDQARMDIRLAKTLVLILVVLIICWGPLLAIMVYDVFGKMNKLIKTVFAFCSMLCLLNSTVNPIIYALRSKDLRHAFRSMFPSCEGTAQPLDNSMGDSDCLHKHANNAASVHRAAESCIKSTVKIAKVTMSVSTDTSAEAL
# Sequence of Hexokinase (Q38C41 whole entry): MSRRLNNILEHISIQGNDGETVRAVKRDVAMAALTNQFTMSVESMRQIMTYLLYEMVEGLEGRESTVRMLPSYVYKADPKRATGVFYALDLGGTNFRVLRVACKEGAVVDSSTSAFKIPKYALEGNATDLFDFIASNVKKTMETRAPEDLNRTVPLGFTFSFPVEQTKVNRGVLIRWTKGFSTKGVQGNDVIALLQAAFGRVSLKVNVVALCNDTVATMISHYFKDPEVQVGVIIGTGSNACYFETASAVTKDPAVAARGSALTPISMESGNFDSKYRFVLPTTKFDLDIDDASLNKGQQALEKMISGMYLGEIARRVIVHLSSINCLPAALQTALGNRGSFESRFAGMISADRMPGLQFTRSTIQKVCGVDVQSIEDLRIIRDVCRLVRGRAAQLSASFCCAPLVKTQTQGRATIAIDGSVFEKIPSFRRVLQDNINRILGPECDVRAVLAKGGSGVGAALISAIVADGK
# Sequence of Hexokinase-1 (P19367 whole entry): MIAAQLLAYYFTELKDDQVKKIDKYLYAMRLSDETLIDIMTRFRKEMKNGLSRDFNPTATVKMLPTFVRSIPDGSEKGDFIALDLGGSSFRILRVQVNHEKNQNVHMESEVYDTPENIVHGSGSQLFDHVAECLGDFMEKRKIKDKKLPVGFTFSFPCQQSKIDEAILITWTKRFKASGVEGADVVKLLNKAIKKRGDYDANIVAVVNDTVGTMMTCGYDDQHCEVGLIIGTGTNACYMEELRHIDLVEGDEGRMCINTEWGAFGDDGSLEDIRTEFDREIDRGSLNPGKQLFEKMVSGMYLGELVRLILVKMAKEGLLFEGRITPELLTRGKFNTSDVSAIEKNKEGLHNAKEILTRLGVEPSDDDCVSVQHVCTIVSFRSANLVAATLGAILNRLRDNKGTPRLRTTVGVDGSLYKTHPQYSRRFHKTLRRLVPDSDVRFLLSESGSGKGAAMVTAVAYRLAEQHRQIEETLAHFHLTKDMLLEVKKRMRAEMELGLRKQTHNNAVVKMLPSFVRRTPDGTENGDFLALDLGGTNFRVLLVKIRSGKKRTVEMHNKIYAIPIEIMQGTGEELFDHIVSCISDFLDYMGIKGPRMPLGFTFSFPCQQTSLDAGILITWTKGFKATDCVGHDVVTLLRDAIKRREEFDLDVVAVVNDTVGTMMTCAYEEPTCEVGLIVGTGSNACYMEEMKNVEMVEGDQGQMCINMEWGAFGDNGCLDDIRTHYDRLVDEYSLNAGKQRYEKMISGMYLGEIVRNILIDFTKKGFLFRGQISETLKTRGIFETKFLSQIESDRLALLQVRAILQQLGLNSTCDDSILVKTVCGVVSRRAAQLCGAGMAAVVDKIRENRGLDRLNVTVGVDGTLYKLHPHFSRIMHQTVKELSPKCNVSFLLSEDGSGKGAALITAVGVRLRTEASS
# Sequence of DNA dC->dU-editing enzyme APOBEC-3A (P31941 whole entry): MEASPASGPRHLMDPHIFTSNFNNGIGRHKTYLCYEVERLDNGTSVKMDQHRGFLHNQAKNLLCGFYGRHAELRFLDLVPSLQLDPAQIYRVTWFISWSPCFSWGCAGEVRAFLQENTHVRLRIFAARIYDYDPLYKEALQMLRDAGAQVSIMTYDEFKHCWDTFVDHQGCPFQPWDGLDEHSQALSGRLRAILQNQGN
# Sequence of DNA damage-inducible transcript 3 protein (P35639 whole entry): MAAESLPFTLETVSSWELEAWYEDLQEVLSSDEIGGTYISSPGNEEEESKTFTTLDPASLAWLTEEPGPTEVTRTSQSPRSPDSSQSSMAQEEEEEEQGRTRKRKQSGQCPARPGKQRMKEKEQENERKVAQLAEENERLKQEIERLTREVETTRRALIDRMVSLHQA
# Sequence of DNA dC->dU-editing enzyme APOBEC-3G (Q9HC16 whole entry): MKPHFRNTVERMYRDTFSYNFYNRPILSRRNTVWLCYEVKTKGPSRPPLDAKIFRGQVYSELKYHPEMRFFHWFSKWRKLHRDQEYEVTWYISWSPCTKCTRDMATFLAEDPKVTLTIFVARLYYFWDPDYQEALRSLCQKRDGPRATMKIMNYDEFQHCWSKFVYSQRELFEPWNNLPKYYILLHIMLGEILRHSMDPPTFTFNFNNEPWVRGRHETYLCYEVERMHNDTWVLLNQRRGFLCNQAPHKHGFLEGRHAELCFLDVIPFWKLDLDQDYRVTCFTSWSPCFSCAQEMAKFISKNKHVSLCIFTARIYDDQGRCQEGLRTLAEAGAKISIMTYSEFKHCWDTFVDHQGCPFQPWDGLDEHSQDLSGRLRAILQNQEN
# Sequence of CAAX prenyl protease 2 (Q03530 whole entry): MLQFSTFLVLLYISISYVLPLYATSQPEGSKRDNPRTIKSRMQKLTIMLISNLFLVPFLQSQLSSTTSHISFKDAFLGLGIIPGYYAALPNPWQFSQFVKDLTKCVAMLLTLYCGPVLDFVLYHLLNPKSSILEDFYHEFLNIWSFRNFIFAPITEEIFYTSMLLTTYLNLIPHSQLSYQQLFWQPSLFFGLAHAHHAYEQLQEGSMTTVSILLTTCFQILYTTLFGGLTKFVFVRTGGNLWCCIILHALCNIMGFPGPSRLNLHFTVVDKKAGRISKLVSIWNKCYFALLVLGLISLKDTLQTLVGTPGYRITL
# Sequence of G-protein coupled receptor 55 (Q9Y2T6 whole entry): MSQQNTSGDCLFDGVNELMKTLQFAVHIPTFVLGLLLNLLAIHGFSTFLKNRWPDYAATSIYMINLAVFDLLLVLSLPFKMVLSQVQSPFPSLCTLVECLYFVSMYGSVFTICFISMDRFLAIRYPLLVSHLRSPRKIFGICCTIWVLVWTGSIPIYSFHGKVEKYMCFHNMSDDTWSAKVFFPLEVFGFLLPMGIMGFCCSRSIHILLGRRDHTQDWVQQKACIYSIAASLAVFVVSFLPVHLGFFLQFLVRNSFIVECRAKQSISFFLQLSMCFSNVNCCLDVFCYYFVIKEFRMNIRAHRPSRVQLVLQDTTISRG
# Sequence of Dual specificity protein phosphatase 3 (P51452 whole entry): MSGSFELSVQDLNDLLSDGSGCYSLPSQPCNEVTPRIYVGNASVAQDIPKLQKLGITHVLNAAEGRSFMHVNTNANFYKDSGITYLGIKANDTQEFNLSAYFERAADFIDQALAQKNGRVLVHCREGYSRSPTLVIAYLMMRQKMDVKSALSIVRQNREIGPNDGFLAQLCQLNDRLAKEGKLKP
compound,measurement,setting,value
NC(=O)CC(NC(=O)Cc1cccc2ccccc12)c1ccc(NCc2ccccc2)c([N+](=O)[O-])c1 (stereo not given),Absolute IC50 (CHOP),[1],10 µM
same,AC50,[2],5.5 µM (active)
Cn1c(=O)c2c(nc(NN/C=C3/C(=O)NC(=S)N(C4CCCCC4)C3=O)n2C)n(C)c1=O,EC50,Hexokinase HKDC1,> 80 µM (inactive)
same,EC50,Hexokinase-1,75.9 µM (inactive)
CCOc1ccc(CC(=O)N2CCC(n3nc(-c4ccccc4)oc3=O)CC2)cc1,IC50,[3],> 32 µM (inactive)
same,EC50,Cannabinoid receptor 1 [4],> 32 µM (inactive)
same,IC50,[5],> 32 µM (inactive)
same,EC50,[6],> 32 µM (inactive)
same,EC50,Cannabinoid receptor 2 [7],> 32 µM (inactive)
same,IC50,Cannabinoid receptor 2 [8],> 32 µM (inactive)
same,IC50,Cannabinoid receptor 1 [9],7.68 µM (active)
COc1ccccc1-c1cc(C(F)(F)F)n2ncc(S(=O)(=O)c3ccccc3)c2n1,AC50,CAAX prenyl protease 2,75.9 µM (active)
same,AC50,Trypsin,13.1 µM (active)
COc1ccccc1-n1c(S)nnc1CNC(=O)COc1ccccc1,IC50,Coagulation factor XII,> 50 µM (inactive)
CC(C)(C)c1ccc(C(=O)Nc2cc(Cl)c(Cl)cc2C(=O)O)cc1,IC50,Hexokinase,1.36 µM (active)
COc1ccc2c(c1)C1NC(S)=NC(C)(O2)C1C(=O)Nc1ccc(Cl)cc1 (stereo not given),EC50,T-cell,31.3 µM (inactive)
Cc1cc(N/N=C/c2ccc(O)cc2)nc(NS(=O)(=O)c2ccccc2)n1,IC50,[10],72.6 µM (active)
same,IC50,[11],21.9 µM (active)
COc1cc(/C=C2/S/C(=N\c3cccc(Br)c3)NC2=O)ccc1OCC(=O)O,IC50,[12],> 100 µM (inactive)
same,IC50,[13],> 100 µM (inactive)
same,IC50,[14],32 µM (active)
same,IC50,[15],1.57 µM (active)
same,IC50,[16],68.8 µM (active)
same,IC50,[17],7.44 µM (active)
same,IC50,[18],7.86 µM (active)
